This is an account of results in patent US9408890B2, “Multivalent liposome formulations” (priority 2013, dated 2016).

Common to all, as to assay type: cell-based, influenza A virus
In test [1] the test system is influenza A/Puerto Rico/8/34 (PR/8, H1N1). Set-up: inhibition of hemagglutination: dose or concentration left out as unconfirmed.
For test [2] the test system is unchanged.
In test [3] the test system is Influenza A/Philippines X-79 (H3N2). The settings on record: 74,000 nM monovalent LSTc; data not shown.

Turning to “sialylneolacto-N-tetraose c [Monovalent LSTc]”, the inhibition of hemagglutination result in test [1] was “did not inhibit hemagglutination”. In addition, the “HAI Titer” value in test [1] (four HA units of virus, human RBCs, reciprocal of last liposome dilution giving non-agglutinated RBCs) is given as “No inhibition”. In addition, the “inhibition of PR/8 infection of MDCK cells (FIG. 3A)” value in test [2] was “did not significantly inhibited infection at high concentrations”. For the same substance, the “inhibition of infectivity of PR/8” value in test [2] (74,000 nM monovalent LSTc) is listed as “did not inhibit the infectivity”. For the same substance, in test [3], the “inhibition of infectivity of Philippines” value is on record as “did not inhibit the infectivity”.
